Assay results reported in patent publication US10849881B2, “Octahydro-cyclobuta[1,2-c;3,4-c′]dipyrrol-2-yl” (Hoffmann-La Roche Inc., priority 2013, dated 2020).

Biological target: ATX (human His-tagged) (Homo sapiens (Human), UniProt Q13822)
Assay: Human ATX enzyme inhibition assay (fluorescence quenching, MR121 substrate)
Assay type: biochemical
Conditions: 30 nM ATX, 1 μM MR121 substrate, 30° C., pH 8.0
Protocol: Human ATX Enzyme Inhibition Assay
ATX inhibition was measured by a fluorescence quenching assay using a specifically labeled substrate analogue (MR121 substrate). To obtain this MR121 substrate, BOC and TBS protected 6-amino-hexanoic acid (R)-3-({2-[3-(2-{2-[2-(2-amino-ethoxy)-ethoxy]-ethoxy}-ethoxy)-propionylamino]-ethoxy}-hydroxy-phosphoryloxy)-2-hydroxy-propyl ester (Ferguson et al., Org Lett 2006, 8 (10), 2023) was labeled with MR121 fluorophore (CAS 185308-24-1, 1-(3-carboxypropyl)-11-ethyl-1,2,3,4,8,9,10,11-octahydro-dipyrido[3,2-b:2′,3′-i]phenoxazin-13-ium) on the free amine of the ethanolamine side and then, after deprotection, subsequently with tryptophan on the side of the aminohexanoic acid.
Assay working solutions were made as follows:
Assay buffer (50 mM Tris-HCl, 140 mM NaCl, 5 mM KCl, 1 mM CaCl2, 1 mM MgCl2, 0.01% Triton-X-100, pH 8.0;
ATX solution: ATX (human His-tagged) stock solution (1.08 mg/mL in 20 mM bicine, pH 8.5, 0.15 M NaCl, 10% glycerol, 0.3% CHAPS, 0.02% NaN3), diluted to 1.4-2.5× final concentration in assay buffer;
MR121 substrate solution: MR121 substrate stock solution (800 μM MR121 substrate in DMSO), diluted to 2-5× final concentration in assay buffer.
Test compounds (10 mM stock in DMSO, 8 μL) were obtained in 384 well sample plates (Corning Costar #3655) and diluted with 8 μL DMSO. Row-wise serial dilutions were made by transferring 8 μL cpd solution to the next row up to row O. The compound and control solutions were mixed five times and 2 μL were transferred to 384 well assay plates (Corning Costar #3702). Then, 15 μL of 41.7 nM ATX solution was added (30 nM final concentration), mixed five times and then incubated for 15 minutes at 30° C. 10 μL of MR121 substrate solution was added (1 μM final concentration), mixed 30 times and then incubated for 15 minutes at 30′C.

Going from `O=C(c1ccc2[nH]nnc2c1)N1C[C@@H]2[C@H](C1)[C@H]1CN(C(=O)c3cc4ccc(OC(F)(F)F)cc4[nH]3)C[C@@H]21` [Example 1.011, [(3aR,3bS,6aR,6bS)-5-(1H-benzotriazole-5-carbonyl)-octahydro-cyclobuta[1,2-c;3,4-c′]dipyrrol-2-yl]-(6-trifluoromethoxy-1H-indol-2-yl)-methanone] to `O=C(c1ccc2[nH]nnc2c1)N1C[C@@H]2[C@H](C1)[C@H]1CN(C(=O)c3cc4ccccc4[nH]3)C[C@@H]21` [Example 1.023, [(3aR,3bS,6aR,6bS)-5-(1H-benzotriazole-5-carbonyl)-octahydro-cyclobuta[1,2-c;3,4-c′]dipyrrol-2-yl]-(1H-indol-2-yl)-methanone], the IC50 rises from 8 nM to 1470 nM (180-fold). The first is the more potent here.

Going from `O=C(c1ccc2ccccc2c1)N1C[C@@H]2[C@H](C1)[C@H]1CN(C(=O)c3ccc4[nH]nnc4c3)C[C@@H]21` [Example 1.012, [(3aS,3bS,6aR,6bR)-5-(1H-benzotriazole-5-carbonyl)-octahydro-cyclobuta[1,2-c;3,4-c′]dipyrrol-2-yl]-naphthalen-2-yl-methanone] to `Cc1ccc2cc(C(=O)N3C[C@@H]4[C@H](C3)[C@H]3CN(C(=O)c5ccc6[nH]nnc6c5)C[C@@H]43)ccc2c1` [Example 1.013, [(3aS,3bS,6aR,6bR)-5-(1H-benzotriazole-5-carbonyl)-octahydro-cyclobuta[1,2-c;3,4-c′]dipyrrol-2-yl]-(6-methyl-naphthalen-2-yl)-methanone], the IC50 falls from 86 nM to 54 nM (1.6-fold). The second is the more potent here.

Going from `Cc1ccc2ccc(C(=O)N3C[C@@H]4[C@H](C3)[C@H]3CN(C(=O)c5ccc6[nH]nnc6c5)C[C@@H]43)cc2c1` [Example 1.014, [(3aS,3bS,6aR,6bR)-5-(1H-benzotriazole-5-carbonyl)-octahydro-cyclobuta[1,2-c;3,4-c′]dipyrrol-2-yl]-(7-methyl-naphthalen-2-yl)-methanone] to `O=C(c1ccc2cc(-c3ccccc3)ccc2c1)N1C[C@@H]2[C@H](C1)[C@H]1CN(C(=O)c3ccc4[nH]nnc4c3)C[C@@H]21` [Example 1.015, [(3aS,3bS,6aR,6bR)-5-(1H-benzotriazole-5-carbonyl)-octahydro-cyclobuta[1,2-c;3,4-c′]dipyrrol-2-yl]-(6-phenyl-naphthalen-2-yl)-methanone], the IC50 falls from 45 nM to 11 nM (4.1-fold).

`O=C(c1ccc2cc(Br)ccc2c1)N1C[C@@H]2[C@H](C1)[C@H]1CN(C(=O)[C@@H]3CCc4[nH]nnc4C3)C[C@@H]21` [Example 1.016, (6-bromo-naphthalen-2-yl)-[(3aR,3bS,6aR,6bS)-5-((R)-4,5,6,7-tetrahydro-1H-benzotriazole-5-carbonyl)-octahydro-cyclobuta[1,2-c;3,4-c′]dipyrrol-2-yl]-methanone] and `O=C(c1ccc(-c2ccc(Cl)cc2)cc1)N1C[C@@H]2[C@H](C1)[C@H]1CN(C(=O)[C@@H]3CCc4[nH]nnc4C3)C[C@@H]21` [Example 1.018, (4′-chloro-biphenyl-4-yl)-[(3aR,3bS,6aR,6bS)-5-((R)-4,5,6,7-tetrahydro-1H-benzotriazole-5-carbonyl)-octahydro-cyclobuta[1,2-c;3,4-c′]dipyrrol-2-yl]-methanone] are within 1.5-fold of each other in IC50: 17 nM for the first, 16 nM for the second.

Going from `O=C(c1ccc(-c2ccc(Cl)cc2)cc1)N1C[C@@H]2[C@H](C1)[C@H]1CN(C(=O)c3ccc4[nH]nnc4c3)C[C@@H]21` [Example 1.017, [(3aS,3bS,6aR,6bR)-5-(1H-benzotriazole-5-carbonyl)-octahydro-cyclobuta[1,2-c;3,4-c′]dipyrrol-2-yl]-(4′-chloro-biphenyl-4-yl)-methanone] to `COc1cccc(C(=O)N2C[C@@H]3[C@H](C2)[C@H]2CN(C(=O)c4ccc5[nH]nnc5c4)C[C@@H]32)c1` [Example 1.028, [(3aS,3bS,6aR,6bR)-5-(1H-benzotriazole-5-carbonyl)-octahydro-cyclobuta[1,2-c;3,4-c′]dipyrrol-2-yl]-(3-methoxy-phenyl)-methanone], the IC50 rises from 8 nM to 2830 nM (350-fold).

First: O=C(c1cc2cc(OC(F)(F)F)ccc2[nH]1)N1C[C@@H]2[C@H](C1)[C@H]1CN(C(=O)[C@@H]3CCc4[nH]nnc4C3)C[C@@H]21 [Example 1.019, [(3aR,3bS,6aR,6bS)-5-((R)-4,5,6,7-tetrahydro-1H-benzotriazole-5-carbonyl)-octahydro-cyclobuta[1,2-c;3,4-c′]dipyrrol-2-yl]-(5-trifluoromethoxy-1H-indol-2-yl)-methanone]
Second: O=C(c1cc2ccc(OC(F)(F)F)cc2[nH]1)N1C[C@@H]2[C@H](C1)[C@H]1CN(C(=O)[C@@H]3CCc4[nH]nnc4C3)C[C@@H]21 [Example 1.020, [(3aR,3bS,6aR,6bS)-5-((R)-4,5,6,7-tetrahydro-1H-benzotriazole-5-carbonyl)-octahydro-cyclobuta[1,2-c;3,4-c′]dipyrrol-2-yl]-(6-trifluoromethoxy-1H-indol-2-yl)-methanone]
The IC50 of the first is 1.9-fold higher: 11.5 nM for the first, 6 nM for the second. The second is the more potent here.

Compared with `COc1cc2ccccc2cc1C(=O)N1C[C@@H]2[C@H]3CN(C(=O)c4ccc5[nH]nnc5c4)C[C@H]3[C@@H]2C1` [Example 1.021, [(3aS,3bS,6aR,6bR)-5-(1H-benzotriazole-5-carbonyl)-octahydro-cyclobuta[1,2-c;3,4-c′]dipyrrol-2-yl]-(3-methoxy-naphthalen-2-yl)-methanone], `COc1cc(C(=O)N2C[C@@H]3[C@H](C2)[C@H]2CN(C(=O)c4ccc5[nH]nnc5c4)C[C@@H]32)cc2ccccc12` [Example 1.026, [(3aS,3bS,6aR,6bR)-5-(1H-benzotriazole-5-carbonyl)-octahydro-cyclobuta[1,2-c;3,4-c′]dipyrrol-2-yl]-(4-methoxy-naphthalen-2-yl)-methanone] is 23-fold lower in IC50: 265 nM for the first, 11.5 nM for the second.

Compared with `COc1c(C(=O)N2C[C@@H]3[C@H]4CN(C(=O)c5ccc6[nH]nnc6c5)C[C@H]4[C@@H]3C2)ccc2ccccc12` [Example 1.022, [(3aS,3bS,6aR,6bR)-5-(1H-benzotriazole-5-carbonyl)-octahydro-cyclobuta[1,2-c;3,4-c′]dipyrrol-2-yl]-(1-methoxy-naphthalen-2-yl)-methanone], `Cn1c(C(=O)N2C[C@@H]3[C@H]4CN(C(=O)c5ccc6[nH]nnc6c5)C[C@H]4[C@@H]3C2)cc2ccccc21` [Example 1.024, [(3aR,3bS,6aR,6bS)-5-(1H-benzotriazole-5-carbonyl)-octahydro-cyclobuta[1,2-c;3,4-c′]dipyrrol-2-yl]-(1-methyl-1H-indol-2-yl)-methanone] is 2.4-fold higher in IC50: 155 nM for the first, 377 nM for the second. The first is the more potent here.

Compared with `O=C(c1cc(OCC2CC2)c2ccccc2c1)N1C[C@@H]2[C@H](C1)[C@H]1CN(C(=O)c3ccc4[nH]nnc4c3)C[C@@H]21` [Example 1.025, [(3aS,3bS,6aR,6bR)-5-(1H-benzotriazole-5-carbonyl)-octahydro-cyclobuta[1,2-c;3,4-c′]dipyrrol-2-yl]-(4-cyclopropylmethoxy-naphthalen-2-yl)-methanone], `N#Cc1ccc2[nH]c(C(=O)N3C[C@@H]4[C@H]5CN(C(=O)c6ccc7[nH]nnc7c6)C[C@H]5[C@@H]4C3)cc2c1` [Example 1.027, 2-[(3aR,3bS,6aR,6bS)-5-(1H-benzotriazole-5-carbonyl)-octahydro-cyclobuta[1,2-c;3,4-c′]dipyrrole-2-carbonyl]-1H-indole-5-carbonitrile] is 97-fold higher in IC50: 8.5 nM for the first, 828 nM for the second. The first is the more potent here.
